Source: patent US11702422B2, “Imidazopyridazines as modulators of IL-17” (Janssen Pharmaceutica NV, priority 2020, dated 2023)

Columns and labels:
[1] = target: IL-17A(FLAG-Tagged): IL-17RA(His-Tagged) (Homo sapiens, UniProt Q16552, K93Q); assay: IL-17A(FLAG-Tagged): IL-17RA(His-Tagged) Binding Disruption Eu-HTRF Assay; details: IL-17A/IL-17RA binding disruption, simple average if tested more than once
Summary of the method: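 IC50 comes from a one-site competition fit of the HTRF 665/620 nm ratio. Compound dilutions (2-fold, 22 points) were held 1 h rt with FLAG-tagged IL-17A dimer, then His-tagged IL-17RA plus Eu-cryptate anti-FLAG and D2 anti-His antibodies were added for 2 h rt.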

[2] = test system: IL-17A-induced G-CSF production in human normal keratinocyte (NHK); assay: NHK Assay: IL-17A-induced G-CSF production in human normal keratinocytes; type: cell-based; details: 24 h, adult normal human keratinocytes, IL-17A 5 ng/mL, simple average if tested more than once
Summary of the method: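 IL-17A (5 ng/mL final) was pre-incubated 1 h at rt with titrated compound and then added to adult normal human keratinocytes (5% FBS, 0.2% DMSO) for 24 h at 37° C. Supernatant G-CSF was measured by HTRF against a standard curve to derive IC50. Viability was checked by CellTiter-Glo.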

Sequence of UniProt Q16552 (Q16552 with tags, fused parts or gaps K93Q): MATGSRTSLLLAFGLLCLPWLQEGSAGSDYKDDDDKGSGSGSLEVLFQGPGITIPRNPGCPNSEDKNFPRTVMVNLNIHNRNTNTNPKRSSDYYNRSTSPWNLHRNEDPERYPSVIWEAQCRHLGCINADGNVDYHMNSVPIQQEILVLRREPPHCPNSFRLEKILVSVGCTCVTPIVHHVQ

Row | IC50 [1] | SMILES | IC50 ([2]; Homo sapiens, Keratinocyte) | IC50 [2]
1 | 67 nM | O=C(CCC(F)(F)F)N[C@@H](c1cnn2cc([C@@H](NC(=O)c3cncc(CCC(F)F)c3)C3CCC(F)(F)CC3)nc2c1)C1CC1 [Example 151, N—((S)-(7-((R)-Cyclopropyl(4,4,4-trifluorobutanamido)methyl)imidazo[1,2-b]pyridazin-2-yl)(4,4-difluorocyclohexyl)methyl)-5-(3,3-difluoropropyl)nicotinamide] | 200 nM | –
2 | 1900 nM | Cc1nonc1C(=O)N[C@H](c1cn2ncc(C(NC(=O)CCC(F)(F)F)C(F)F)cc2n1)C1CCC(F)(F)CC1 (single isomer, unassigned) [Example 516, N—((S)-(7-((R*)-2,2-Difluoro-1-(4,4,4-trifluorobutanamido)ethyl)imidazo[1,2-b]pyridazin-2-yl)(4,4-difluorocyclohexyl)methyl)-4-methyl-1,2,5-oxadiazole-3-carboxamide] | – | > 20000 nM
3 | 2000 nM | Cc1cc(C(=O)N[C@H](c2cn3ncc([C@H](NC(=O)CCC(F)(F)F)C4CC4)cc3n2)C2CCC(F)(F)CC2)ncn1 [Example 218, N—((S)-(7-((R)-Cyclopropyl(4,4,4-trifluorobutanamido)methyl)imidazo[1,2-b]pyridazin-2-yl)(4,4-difluorocyclohexyl)methyl)-6-methylpyrimidine-4-carboxamide] | > 20000 nM | –
4 | 200 nM | CC(C)n1nccc1C(=O)N[C@H](c1cn2ncc([C@H](NC(=O)CCCF)C3CC3)cc2n1)C1CCC(F)(F)CC1 [Example 251, N—((S)-(7-((R)-Cyclopropyl(4-fluorobutanamido)methyl)imidazo[1,2-b]pyridazin-2-yl)(4,4-difluorocyclohexyl)methyl)-1-isopropyl-1H-pyrazole-5-carboxamide] | 770 nM | –
5 | 180 nM | O=C(CCC(F)(F)F)N[C@@H](c1cnn2cc([C@@H](NC(=O)c3cnnn3CCOC(F)F)C3CCC(F)(F)CC3)nc2c1)C1CC1 [Example 34, N—((S)-(7-((R)-Cyclopropyl(4,4,4-trifluorobutanamido)methyl)imidazo[1,2-b]pyridazin-2-yl)(4,4-difluorocyclohexyl)methyl)-1-(2-(difluoromethoxy)ethyl)-1H-1,2,3-triazole-5-carboxamide] | 64 nM | –
6 | 170 nM | [2H]C([2H])([2H])C([2H])([2H])n1nccc1C(=O)N[C@@H](CC(C)(C)C(F)(F)F)c1cn2ncc([C@H](NC(=O)CC3CC(F)(F)C3)C3CC3)cc2n1 [Example 545, N—((S)-1-(7-((R)-Cyclopropyl(2-(3,3-difluorocyclobutyl)acetamido)methyl)imidazo[1,2-b]pyridazin-2-yl)-4,4,4-trifluoro-3,3-dimethylbutyl)-1-(ethyl-d5)-1H-pyrazole-5-carboxamide] | 150 nM | –
7 | 91 nM | [2H]C([2H])([2H])n1nccc1C(=O)N[C@H](c1cn2ncc(C(NC(=O)CC3CC(F)(F)C3)C3CCC3)cc2n1)C1CCC(F)(F)CC1 (single isomer, unassigned) [Example 497, N—((S)-(7-((R*)-Cyclobutyl(2-(3,3-difluorocyclobutyl)acetamido)methyl)imidazo[1,2-b]pyridazin-2-yl)(4,4-difluorocyclohexyl)methyl)-1-(methyl-d3)-1H-pyrazole-5-carboxamide] | 150 nM | –
8 | 690 nM | [2H]C([2H])([2H])C([2H])([2H])n1nccc1C(=O)N[C@H](c1cn2ncc(C(NC(=O)CC3CC(F)(F)C3)C3CCC3)cc2n1)C1CCC(F)(F)CC1 (single isomer, unassigned) [Example 496, N—((S)-(7-((S*)-Cyclobutyl(2-(3,3-difluorocyclobutyl)acetamido)methyl)imidazo[1,2-b]pyridazin-2-yl)(4,4-difluorocyclohexyl)methyl)-1-(ethyl-d5)-1H-pyrazole-5-carboxamide] | – | 10000 nM
9 | 120 nM | O=C(CCC(F)(F)F)N[C@@H](c1cnn2cc([C@@H](NC(=O)c3cncc(F)c3)C3CCC(F)(F)CC3)nc2c1)C1CC1 [Example 451, N—((S)-(7-((R)-Cyclopropyl(4,4,4-trifluorobutanamido)methyl)imidazo[1,2-b]pyridazin-2-yl)(4,4-difluorocyclohexyl)methyl)-5-fluoronicotinamide] | 830 nM | –
10 | 47 nM | [2H]C([2H])([2H])C([2H])([2H])n1nccc1C(=O)N[C@H](c1cn2ncc([C@H](NC(=O)CCC(F)(F)F)C3CC3)cc2n1)C1CCC(F)(F)CC1 [Example 233, N—((S)-(7-((R)-Cyclopropyl(4,4,4-trifluorobutanamido)methyl)imidazo[1,2-b]pyridazin-2-yl)(4,4-difluorocyclohexyl)methyl)-1-(ethyl-d5)-1H-pyrazole-5-carboxamide] | 51 nM | –
11 | 150 nM | O=C(CCC(F)(F)F)N[C@@H](c1cnn2cc([C@@H](NC(=O)c3cnn(CC4CC4(F)F)n3)C3CCC(F)(F)CC3)nc2c1)C1CC1 (stereo partly drawn) [Example 93, N—((S)-(7-((R)-Cyclopropyl(4,4,4-trifluorobutanamido)methyl)imidazo[1,2-b]pyridazin-2-yl)(4,4-difluorocyclohexyl)methyl)-2-((2,2-difluorocyclopropyl)methyl)-2H-1,2,3-triazole-4-carboxamide] | 280 nM | –
12 | 61 nM | O=C(CC1CC(F)(F)C1)N[C@@H](c1cnn2cc([C@@H](NC(=O)c3nonc3C(F)F)C3CCC(F)(F)CC3)nc2c1)C1CC1 [Example 413, N—((S)-(7-((R)-Cyclopropyl(2-(3,3-difluorocyclobutyl)acetamido)methyl)imidazo[1,2-b]pyridazin-2-yl)(4,4-difluorocyclohexyl)methyl)-4-(difluoromethyl)-1,2,5-oxadiazole-3-carboxamide] | 170 nM | –
13 | 120 nM | O=C(CCC(F)(F)F)N[C@@H](c1cnn2cc([C@@H](NC(=O)c3ccnc(CC(F)(F)F)c3)C3CCC(F)(F)CC3)nc2c1)C1CC1 [Example 74, N—((S)-(7-((R)-Cyclopropyl(4,4,4-trifluorobutanamido)methyl)imidazo[1,2-b]pyridazin-2-yl)(4,4-difluorocyclohexyl)methyl)-2-(2,2,2-trifluoroethyl)isonicotinamide] | 58 nM | –
14 | 110 nM | O=C(CCC(F)(F)F)N[C@@H](c1cnn2cc([C@@H](NC(=O)c3cc(C4CC4)ccn3)C3CCC(F)(F)CC3)nc2c1)C1CC1 [Example 460, 4-Cyclopropyl-N—((S)-(7-((R)-cyclopropyl(4,4,4-trifluorobutanamido)methyl)imidazo[1,2-b]pyridazin-2-yl)(4,4-difluorocyclohexyl)methyl)picolinamide] | 1100 nM | –
15 | 110 nM | O=C(CCC(F)(F)F)N[C@@H](c1cnn2cc([C@@H](NC(=O)c3ncnn3C3CC3)C3CCC(F)(F)CC3)nc2c1)C1CC1 [Example 103, 1-Cyclopropyl-N—((S)-(7-((R)-cyclopropyl(4,4,4-trifluorobutanamido)methyl)imidazo[1,2-b]pyridazin-2-yl)(4,4-difluorocyclohexyl)methyl)-1H-1,2,4-triazole-5-carboxamide] | 370 nM | –
16 | 180 nM | CC(C)(O)c1nonc1C(=O)N[C@H](c1cn2ncc(C(NC(=O)CC3CC(F)(F)C3)C3CCC3)cc2n1)C1CCC(F)(F)CC1 (single isomer, unassigned) [Example 499, N—((S)-(7-((R*)-Cyclobutyl(2-(3,3-difluorocyclobutyl)acetamido)methyl)imidazo[1,2-b]pyridazin-2-yl)(4,4-difluorocyclohexyl)methyl)-4-(2-hydroxypropan-2-yl)-1,2,5-oxadiazole-3-carboxamide] | 160 nM | –
17 | 63 nM | O=C(CC1CC(F)(F)C1)N[C@@H](c1cnn2cc([C@@H](NC(=O)c3nocc3C3CC3)C3CCC(F)(F)CC3)nc2c1)C1CC1 [Example 403, 4-Cyclopropyl-N—((S)-(7-((R)-cyclopropyl(2-(3,3-difluorocyclobutyl)acetamido)methyl)imidazo[1,2-b]pyridazin-2-yl)(4,4-difluorocyclohexyl)methyl)isoxazole-3-carboxamide] | 170 nM | –
18 | 220 nM | O=C(CCC(F)(F)F)N[C@@H](c1cnn2cc([C@@H](NC(=O)c3ccncc3)C3CCC(F)(F)CC3)nc2c1)C1CC1 [Example 190, N—((S)-(7-((R)-Cyclopropyl(4,4,4-trifluorobutanamido)methyl)imidazo[1,2-b]pyridazin-2-yl)(4,4-difluorocyclohexyl)methyl)isonicotinamide] | 820 nM | –
19 | 100 nM | CC(n1nccc1C(=O)N[C@H](c1cn2ncc([C@H](NC(=O)CCC(F)(F)F)C3CC3)cc2n1)C1CCC(F)(F)CC1)C(F)(F)F (single isomer, unassigned) [Example 116, N—((S)-(7-((R)-Cyclopropyl(4,4,4-trifluorobutanamido)methyl)imidazo[1,2-b]pyridazin-2-yl)(4,4-difluorocyclohexyl)methyl)-1-((S*)-1,1,1-trifluoropropan-2-yl)-1H-pyrazole-5-carboxamide] | – | 210 nM
20 | 4600 nM | O=C(CCC(F)(F)F)N[C@@H](c1cnn2cc([C@@H](NC(=O)c3nccc(C(F)(F)F)n3)C3CCC(F)(F)CC3)nc2c1)C1CC1 [Example 217, N—((S)-(7-((R)-Cyclopropyl(4,4,4-trifluorobutanamido)methyl)imidazo[1,2-b]pyridazin-2-yl)(4,4-difluorocyclohexyl)methyl)-4-(trifluoromethyl)pyrimidine-2-carboxamide] | > 20000 nM | –
